Results published in patent publication US6846845B2, “Heat shock protein inducer” (Eisai Co., Ltd., priority 2002, dated 2005).

Assays:
Format in all cases: in vivo, rat
HSP70 = experiment: Effect of chelerythrine pretreatment on GGA-induced HSP70 expression in the heart (Western immunoblotting), Example 2; settings: 24 h after GGA 200 mg/kg oral or vehicle; chelerythrine 5 mg/kg i.v. pretreatment, FIG. 8
Experimental: (§1) Male Sprague-Dawley rats (220-250 g) were used. GGA, as an emulsion with 5% gum arabic and 0.008% tocopherol, was given orally at a dose of 200 mg/kg. Rats were classified into 4 groups. FIG. 7 is a diagrammatic representation of experimental protocol. […] Twenty-four hours after oral administration of GGA or vehicle, rats were anesthetized (sodium pentobarbital, 50 mg/kg IP) and heparinized (500 IU/kg IP). Hearts were excised, immediately frozen in liquid nitrogen, and stored at −70° C. until use for Western blot analysis (n=4 for each group). […]
(§2) To analyze the expression of HSP70, the frozen heart samples were homogenized with SDS sample buffer (pH 6.8, 20% glycerol, 6% SDS, 0.12M Tris), centrifuged and boiled (Maloyan A, Palmon A, Horowitz M. Heat acclimation increases the basal HSP70 level and alters its production dynamics during heat stress. Am J Physiol. 1999; 276:R1506-R1515.). […] The total protein concentration of heart was quantified by the Bradford method (Bradford MM. A rapid and sensitive method for quantitation of microgram quantities of protein utilizing the principle of protein-dye binding. Anal. Biochem. 1976;72:248-254). […] The proteins were detected by ECL with exposure to Hyperfilm (Amersham Pharmacia). The amount of protein on the immunoblots was quantified using National Institutes of Health image software. […]

[1] = test system: heat shock factor 1 (HSF1); experiment: HSF1 phosphorylation and translocation in cytosolic and nuclear heart fractions (Western immunoblotting); settings: 24 h after GGA 200 mg/kg oral or vehicle; chelerythrine 5 mg/kg i.v. pretreatment, FIG. 9
Experimental: as §1, §2

PKCδ = experiment: Translocation of PKCδ in particulate and cytosolic heart fractions (Western immunoblotting); settings: 24 h after GGA 200 mg/kg oral or vehicle; chelerythrine 5 mg/kg i.v. pretreatment, FIG. 10
PKC (α, β, γ and ε) = experiment: Translocation of PKC isoforms α, β, γ and ε in particulate and cytosolic heart fractions (Western immunoblotting); settings: 24 h after GGA 200 mg/kg oral or vehicle; chelerythrine 5 mg/kg i.v. pretreatment, FIG. 10
isolated perfused heart = experiment: Isolated perfused heart experiments (Langendorff, 20 min no-flow global ischemia, 30 min reperfusion), Example 2
Experimental: Male Sprague-Dawley rats (220-250 g) were used. GGA, as an emulsion with 5% gum arabic and 0.008% tocopherol, was given orally at a dose of 200 mg/kg. Rats were classified into 4 groups. FIG. 7 is a diagrammatic representation of experimental protocol. […] Twenty-four hours after oral administration of GGA or vehicle, rats were anesthetized (sodium pentobarbital, 50 mg/kg IP) and heparinized (500 IU/kg IP). Hearts were excised, immediately frozen in liquid nitrogen, and stored at −70° C. until use for Western blot analysis (n=4 for each group). To examine the cardiac function during ischemia and reperfusion, hearts of each group were prepared for isolated perfused experiments using Langendorff apparatus (n=7-9 for each group, FIG. 7).
Twenty-four hours after administration-of 200 mg/kg of GGA or vehicle, rats of 4 groups were heparinized (500 IU/kg, IP) and anesthetized with sodium pentobarbital (50 mg/kg, IP). Each heart was isolated and perfused retrogradely using the Langendorff method with Krebs-Henseleit buffer (pH 7.4, [in mM] 118 NaCl, 4.7 KCl, 2.5 CaCl2, 1.2 MgSO4, 1.2 KH2PO4, 25.0 Na2HCO3, 11.0 glucose) equilibrated with 95% O2-5% CO2 gas mixture at 36.5° C. at a constant pressure of 75 mm Hg. A water-filled latex balloon was inserted through the mitral orifice into the left ventricle (LV) and the LV end-diastolic pressure (LVEDP) was adjusted to 0-5 mm Hg. During the initial 10 min of constant pressure perfusion, the perfusion flow rate was determined for each heart, which was then perfused at a determined perfusion rate using a microtube pump while the heart was covered with water-jacketed glassware and the relative humidity maintained at 90% or more. Normothermic no-flow global ischemia was initiated for 20 min, followed by reperfusion for 30 min. The coronary effluent during the 30 min of reperfusion period was collected for measurement of creatine kinase content (released CK).
LV pressure was monitored using a pressure transducer to obtain the peak positive and negative first derivatives of LV pressure (dP/dtmax and dP/dtmin). […] Coronary perfusion pressure (CPP) was defined as the hydraulic pressure measured at the level of aortic cannulation. LV pressure, CPP and electrocardiogram were continuously recorded on a polygraph recorder (WS-681G, Nihon Kohden) and stored on a PCM data recorder (RD-111T, TEAC) for later analysis.
Data are expressed as mean ±SEM. Serial changes in LVDP, LVEDP, CPP, and dP/dt were analyzed by two-way analysis of variance (ANOVA) followed by the Bonferroni/Dunn test, unless otherwise specified. Comparisons among groups with respect to the hemodynamic parameters at baseline and the ratio of released CK to ventricular weight were analyzed by one-way ANOVA followed by the Bonferroni/Dunn test. […]

COc1ccc2c(c[n+](C)c3c4cc5c(cc4ccc23)OCO5)c1OC [chelerythrine, reference compound]
HSP70 expression in the heart (relative density to control group) (HSP70): did not influence
amount of phosphorylated form of HSF1 in the nuclear fraction [1]: did not significantly influence
PKCδ in the particulate fraction / particulate/cytosol ratio versus CNT group (PKCδ): did not influence
PKC isoforms α, β, γ and ε in cytosolic and particulate fractions (PKC (α, β, γ and ε)): not influenced
released creatine kinase (CK) relative to ventricular weight (isolated perfused heart; 30-min reperfusion period after 20 min ischemia, FIG. 12): similar
recovery of LVDP, LVEDP and dP/dt on reperfusion versus CNT group (isolated perfused heart; 20 min no-flow global ischemia, 30 min reperfusion, FIG. 11): similar
